Measurements from publication PMC10535219, “Discovery and Potential Utility of a Novel Non-Invasive Ocular Delivery Platform” (Pharmaceutics, 2023).
Read-outs that look alike come from different tables or passages of the source.

Assay: Biodisposition of JV-DE1 and JV-MD2 delivered via NIODP (periorbital skin) in non-human primates
Format: in vivo, cynomolgus monkeys
Settings: for % Administered Dose, Retina: endogenous DHA subtracted; for Cmax / concentration at 0.5 h / concentration at 24 h / concentration at 3 h / concentration at 6 h: cynomolgus monkey, topical
Method: All experiments were performed at Medicilon. […] A pen brush was used to dose each formulation with three to four circular motions for even distribution. The doses of the test articles were selected based on their solubility/concentration with the maximum deliverable volume on the periorbital skin of the animals. The administered dose was calculated by the weight difference of the pen brush before and after administration. Animals were restrained from eye rubbing in restraint chairs for 2 h after dosing, with access to food and drink. A blood sample was collected from one of the study animals at pre-dosing. For every time point of 0.5, 3, 6, and 24 h post-dose, one animal was euthanized and the ocular tissues (upper eyelid, cornea, retina, and vitreous humor) of both eyes were collected. Plasma samples were collected before each euthanization.
For the convenience of tissue processing and sample extraction, only upper eyelids were collected to represent the entirety of the periorbital tissue. Ocular tissues were homogenized by adding a 9-fold volume of 50% methanol/H2O per gram of tissue. For the LC-MS/MS sample preparation, a 50 μL aliquot of plasma, aqueous humor, vitreous humor, or tissue homogenate was thoroughly mixed with a 250 μL extraction solution of CHCl3/EtOH (1:1); then, a 210 μL supernatant of the samples was transferred to a 96-well plate after centrifugation. The samples were evaporated in nitrogen gas (N2) until dried. Each sample was redissolved in 200 μL MeOH, of which 2 µL was injected for the LC-MS/MS analysis.
The LC system was the same as that described in Section 2. The MS analysis was performed using a Triple Quad 5500 with an ESI ion source, and the data acquisition and control system were Analyst 1.6.3 software from Applied Biosystems/MDS Sciex.
The LC/MS conditions for JV-DE1 are described in Supplementary Table S2. The LC conditions were as follows: ACQUITY UPLC ® BEH C18 1.7 μm, 2.1 mm × 50 mm; the mobile phase Column A, 0.1% formic acid in water; and Column B, 0.1% formic acid in acetonitrile. The flow rate was 0.6 ml/min, the column temperature was 50 °C, and the injection volume was 2 µL. The MS conditions were as follows: scan type, positive MRM; ion source, turbo spray; ionization model, ESI; nebulizer gas 1, 55 psi; gas 2, 55 psi; curtain gas, 40 psi; CAD, 10; ionspray voltage, 5500 V; and temperature, 550 °C.
The LC/MS conditions for JV-MD2 (DHA) are described in Supplementary Table S3. The LC conditions were as follows: ACQUITY UPLC® BEH C18 1.7 μm, 2.1 mm × 50 mm; the mobile phase Column A, […] NH4AC in H2O; and Column B, CAN. The flow rate was 0.5 mL/min, the column temperature was 40 °C, and the injection volume was 4 µL. The MS conditions were as follows: scan type, negative MRM; ion source, turbo spray; ionization model, ESI; nebulizer gas 1, 55 psi; gas 2, 55 psi; curtain gas, 40 psi; CAD, 9; ionspray voltage, 5500 V; and temperature, 550 °C.

[1] = JV-MD2, monkey, NIODP OS, 6568 μg/eye, 0.5 h
[2] = JV-MD2, monkey, NIODP OS, 6747 μg/eye, 24 h
[3] = JV-MD2, monkey, NIODP OS, 6768 μg/eye, 3 h
[4] = JV-MD2, monkey, NIODP OS, 7018 μg/eye, 6 h
[5] = JV-MD2, monkey, NIODP, within 30 min of dosing

Structure (SMILES): CC/C=C\C/C=C\C/C=C\C/C=C\C/C=C\C/C=C\CCC(=O)O [JV-MD2, cis-4,7,10,13,16,19-docosahexaenoic acid]
- concentration in vitreous humor (JV-MD2, monkey, NIODP 6775 µg/eye, all timepoints except 24 h, LLOQ 0.5 µg/mL): below BLQ
- % Administered Dose, Cornea [1]: 0.0283%
- % Administered Dose, Eyelid/periorbital skin [1]: 0.4288%
- % Administered Dose, Vitreous humor [1]: 0.0000%
- % Administered Dose, Retina [1]: 0.0343%
- % Administered Dose, Cornea [2]: 0.0173%
- % Administered Dose, Eyelid/periorbital skin [2]: 0.0197%
- % Administered Dose, Vitreous humor [2]: 0.0236%
- % Administered Dose, Retina [2]: 0.0175%
- % Administered Dose, Cornea [3]: 0.0109%
- % Administered Dose, Eyelid/periorbital skin [3]: 0.3844%
- % Administered Dose, Vitreous humor [3]: 0.0000%
- % Administered Dose, Retina [3]: 0.0264%
- % Administered Dose, Cornea [4]: 0.0149%
- % Administered Dose, Eyelid/periorbital skin [4]: 0.0149%
- % Administered Dose, Vitreous humor [4]: 0.0000%
- % Administered Dose, Retina [4]: 0.0228%
- maximum percentage of the administered dose, cornea [5]: 0.0283%
- maximum percentage of the administered dose, eyelid/periorbital skin [5]: 0.4288%
- maximum percentage of the administered dose, retina [5]: 0.0343%
- Cmax (cornea, JV-MD2, monkey, single dose about 7 mg via NIODP, read-out: Cmax in cornea): 66000 ng/g
- Cmax (retina, JV-MD2, NHP, about 7 mg/eye via NIODP, read-out: retinal Cmax): ~338 µM
- Cmax (retina, JV-MD2, monkey, single dose about 7 mg (6775 µg/eye) via NIODP, endogenous level 17 µg/g, read-out: Cmax in retina): 111000 ng/g
- concentration at 0.5 h (cynomolgus, cornea of the dosed left eye (OS), JV-MD2, monkey, NIODP OS, 6568 μg/eye, 0.5 h, endogenous BLQ, read-out: Drug in OS Tissues, Cornea): 66000 ng/g
- concentration at 24 h (cynomolgus, cornea of the dosed left eye (OS), JV-MD2, monkey, NIODP OS, 6747 μg/eye, 24 h, endogenous BLQ, read-out: Drug in OS Tissues, Cornea): 26000 ng/g
- concentration at 3 h (cynomolgus, cornea of the dosed left eye (OS), JV-MD2, monkey, NIODP OS, 6768 μg/eye, 3 h, endogenous BLQ, read-out: Drug in OS Tissues, Cornea): 22000 ng/g
- concentration at 6 h (cynomolgus, cornea of the dosed left eye (OS), JV-MD2, monkey, NIODP OS, 7018 μg/eye, 6 h, endogenous BLQ, read-out: Drug in OS Tissues, Cornea): 22000 ng/g
- concentration at 0.5 h (cynomolgus, plasma, JV-MD2 21.5% w/w, monkey, NIODP periorbital skin OS, 6568 μg/eye, 0.5 h, pre-dose baseline 2, read-out: Drug in plasma): 2000 ng/mL
- concentration at 24 h (cynomolgus, plasma, JV-MD2 21.5% w/w, monkey, NIODP periorbital skin OS, 6747 μg/eye, 24 h, pre-dose baseline 2, read-out: Drug in plasma): 1000 ng/mL
- concentration at 3 h (cynomolgus, plasma, JV-MD2 21.5% w/w, monkey, NIODP periorbital skin OS, 6768 μg/eye, 3 h, pre-dose baseline 2, read-out: Drug in plasma): 3000 ng/mL
- concentration at 6 h (cynomolgus, plasma, JV-MD2 21.5% w/w, monkey, NIODP periorbital skin OS, 7018 μg/eye, 6 h, pre-dose baseline 2, read-out: Drug in plasma): 2000 ng/mL
- Cmax (cynomolgus, retina, 6775 µg per eye, JV-MD2, NHP, about 7 mg/eye via NIODP, read-out: retinal Cmax): 338 µM
- concentration at 0.5 h (cynomolgus, retina, JV-MD2, monkey, NIODP OS, 6568 μg/eye, 0.5 h, endogenous DHA 17 µg/g, read-out: Drug in OS Tissues, Retina): 111000 ng/g
- concentration at 24 h (cynomolgus, retina, JV-MD2, monkey, NIODP OS, 6747 μg/eye, 24 h, endogenous DHA 17 µg/g, read-out: Drug in OS Tissues, Retina): 47000 ng/g
- concentration at 3 h (cynomolgus, retina, JV-MD2, monkey, NIODP OS, 6768 μg/eye, 3 h, endogenous DHA 17 µg/g, read-out: Drug in OS Tissues, Retina): 67000 ng/g
- concentration at 6 h (cynomolgus, retina, JV-MD2, monkey, NIODP OS, 7018 μg/eye, 6 h, endogenous DHA 17 µg/g, read-out: Drug in OS Tissues, Retina): 79000 ng/g
- concentration at 0.5 h (cynomolgus, upper eyelid (periorbital skin) of the dosed left eye (OS), JV-MD2, monkey, NIODP OS, 6568 μg/eye, 0.5 h, endogenous BLQ, read-out: Drug in OS Tissues, Eyelid/periorbital skin): 381000 ng/g
- concentration at 24 h (cynomolgus, upper eyelid (periorbital skin) of the dosed left eye (OS), JV-MD2, monkey, NIODP OS, 6747 μg/eye, 24 h, endogenous BLQ, read-out: Drug in OS Tissues, Eyelid/periorbital skin): 16000 ng/g
- concentration at 3 h (cynomolgus, upper eyelid (periorbital skin) of the dosed left eye (OS), JV-MD2, monkey, NIODP OS, 6768 μg/eye, 3 h, endogenous BLQ, read-out: Drug in OS Tissues, Eyelid/periorbital skin): 420000 ng/g
- concentration at 6 h (cynomolgus, upper eyelid (periorbital skin) of the dosed left eye (OS), JV-MD2, monkey, NIODP OS, 7018 μg/eye, 6 h, endogenous BLQ, read-out: Drug in OS Tissues, Eyelid/periorbital skin): 11000 ng/g
- concentration at 24 h (cynomolgus, vitreous humor, 6775 µg per eye, JV-MD2, monkey, NIODP 6775 µg/eye, 24 h post-dose, read-out: concentration in vitreous humor): 2000 ng/mL
- concentration at 0.5 h (cynomolgus, vitreous humor, JV-MD2, monkey, NIODP OS, 6568 μg/eye, 0.5 h, BLQ given a value of 0, LLOQ 0.5 µg/mL, read-out: Drug in OS Tissues, Vitreous humor): 0 ng/g
- concentration at 24 h (cynomolgus, vitreous humor, JV-MD2, monkey, NIODP OS, 6747 μg/eye, 24 h, read-out: Drug in OS Tissues, Vitreous humor): 2000 ng/g
- concentration at 3 h (cynomolgus, vitreous humor, JV-MD2, monkey, NIODP OS, 6768 μg/eye, 3 h, BLQ given a value of 0, LLOQ 0.5 µg/mL, read-out: Drug in OS Tissues, Vitreous humor): 0 ng/g
- concentration at 6 h (cynomolgus, vitreous humor, JV-MD2, monkey, NIODP OS, 7018 μg/eye, 6 h, BLQ given a value of 0, LLOQ 0.5 µg/mL, read-out: Drug in OS Tissues, Vitreous humor): 0 ng/g
